According to patent publication US7109193B2, “Tricyclic diazepines tocolytic oxytocin receptor antagonists” (Wyeth, priority 2001, dated 2006):

The molecules below were run against T1, human vasopressin V2 receptor subtype (Homo sapiens, UniProt P30518) (assay: Vasopressin binding in Chinese Hamster Ovary cell membranes expressing human vasopressin V2 subtype receptors). Settings: 100 nM, CHO cell membranes, [3H]arginine vasopressin, values without parentheses.
T1 construct: host or cells: CHO cells (pZeoSV vector)
T1 sequence (P30518 whole entry): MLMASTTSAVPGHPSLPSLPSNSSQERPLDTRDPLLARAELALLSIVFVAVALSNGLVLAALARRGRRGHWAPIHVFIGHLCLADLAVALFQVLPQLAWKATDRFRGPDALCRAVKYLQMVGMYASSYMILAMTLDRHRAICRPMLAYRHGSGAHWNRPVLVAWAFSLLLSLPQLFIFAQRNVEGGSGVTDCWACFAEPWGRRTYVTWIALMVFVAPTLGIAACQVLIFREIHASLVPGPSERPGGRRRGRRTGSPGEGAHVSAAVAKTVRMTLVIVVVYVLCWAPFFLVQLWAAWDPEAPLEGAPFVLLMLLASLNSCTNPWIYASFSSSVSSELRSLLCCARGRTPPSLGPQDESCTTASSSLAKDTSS
Outline: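 Radioligand displacement on membranes from CHO cells stably expressing human V2 receptor, 25 to 50 μg protein/well, in 50 mM Tris-HCl pH 7.4 with MgCl2, BSA and protease inhibitors. [^3H]arginine vasopressin (8 nM working solution) incubated 60 min at room temperature; bound label measured by filtration and scintillation counting.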
`COc1cccc(-c2cc(OC)c(C(=O)N3Cc4ccc(C(=O)N(C)C5CCN(C)CC5)n4Cc4ccccc43)cc2Cl)c1` [Example 181, 10-[(6-Chloro-3,3′-dimethoxy[1,1′-biphenyl]-4-yl)carbonyl]-N-methyl-N-(1-methyl4-piperidinyl)-10,11-dihydro-5H-pyrrolo[2,1-c][1,4]benzodiazepine-3-carboxamide] was tested, and the inhibition at 0.1 µM was 12%.
`COc1cc(C(=O)N2Cc3ccc(C(=O)N(C)C4CCN(C)CC4)n3Cc3ccccc32)ccc1-c1cccc2ccccc12` [Example 182, 10-[3-Methoxy-4-(1-naphthyl)benzoyl]-N-methyl-N-(1-methyl-4-piperidinyl)-10,11-dihydro-5H-pyrrolo[2,1-c][1,4]benzodiazepine-3-carboxamide] gave an inhibition at 0.1 µM of 35%.
Work on `COc1ccccc1-c1ccc(C(=O)N2Cc3ccc(C(=O)N(C)C4CCN(C)CC4)n3Cc3ccccc32)cc1OC` [Example 183, 10-[(2,2′-Dimethoxy[1,1′-biphenyl]-4-yl)carbonyl]-N-methyl-N-(1-methyl-4-piperidinyl)-10,11-dihydro-5H-pyrrolo[2,1-c][1,4]benzodiazepine-3-carboxamide] yielded an inhibition at 0.1 µM of 18%.
`Cc1cc(C(=O)N2Cc3ccc(C(=O)N(C)C4CCN(C)CC4)n3Cc3ccccc32)ccc1-c1ccccc1C(F)(F)F` [Example 184, N-Methyl-N-(1-methyl-4-piperidinyl)-10-{[2-methyl-2′-(trifluoromethyl)[1,1′-biphenyl]-4-yl]carbonyl}-10,11-dihydro-5H-pyrrolo[2,1-c][1,4]benzodiazepine-3-carboxamide] was tested, and the inhibition at 0.1 µM was 9%.
`COc1ccccc1-c1ccc(C(=O)N2Cc3ccc(C(=O)N(C)C4CCN(C)C4)n3Cc3ccccc32)cc1C` (stereo not shown) [Example 185, 10-[(2′-Methoxy-2-methyl[1,1′-biphenyl]-4-yl)carbonyl]-N-methyl-N-(1-methyl-3-pyrrolidinyl)-10,11-dihydro-5H-pyrrolo[2,1-c][1,4]benzodiazepine-3-carboxamide] gave an inhibition at 0.1 µM of 27%.
For `COc1cccc(-c2ccc(C(=O)N3Cc4ccc(C(=O)N(C)C5CCN(C)C5)n4Cc4ccccc43)cc2C)c1` (stereo not shown) [Example 186, 10-[(3′-Methoxy-2-methyl[1,1′-biphenyl]-4-yl)carbonyl]-N-methyl-N-(1-methyl-3-pyrrolidinyl)-10,11-dihydro-5H-pyrrolo[2,1-c][1,4]benzodiazepine-3-carboxamide], the inhibition at 0.1 µM was 8%.
`COc1ccccc1-c1ccc(C(=O)N2Cc3ccc(C(=O)N(C)C4CCN(C)C4)n3Cc3ccccc32)cc1` (stereo not shown) [Example 187, 10-[(2′-Methoxy[1,1′-biphenyl]-4-yl)carbonyl]-N-methyl-N-(1-methyl-3-pyrrolidinyl)-10,11-dihydro-5H-pyrrolo[2,1-c][1,4]benzodiazepine-3-carboxamide] was tested, and the inhibition at 0.1 µM was 31%.
With `Cc1ccccc1-c1ccc(C(=O)N2Cc3ccc(C(=O)N(C)C4CCN(C)C4)n3Cc3ccccc32)cc1` (stereo not shown) [Example 188, N-Methyl-10-[(2′-methyl[1,1′-biphenyl]-4-yl)carbonyl]-N-(1-methyl-3-pyrrolidinyl)-10,11-dihydro-5H-pyrrolo[2,1-c][1,4]benzodiazepine-3-carboxamide] the inhibition at 0.1 µM was 10%.
`COc1cc(C(=O)N2Cc3ccc(C(=O)N(C)C4CCN(C)C4)n3Cc3ccccc32)ccc1-c1ccccc1C` (stereo not shown) [Example 189, 10-[(2-Methoxy-2′-methyl[1,1′-biphenyl]-4-yl)carbonyl]-N-methyl-N-(1-methyl-3-pyrrolidinyl)-10,11-dihydro-5H-pyrrolo[2,1-c][1,4]benzodiazepine-3-carboxamide] showed an inhibition at 0.1 µM of 22%.
For `COc1cc(-c2ccccc2C)c(Cl)cc1C(=O)N1Cc2ccc(C(=O)N(C)C3CCN(C)C3)n2Cc2ccccc21` (stereo not shown) [Example 190, 10-[(6-Chloro-3-methoxy-2′-methyl[1,1′-biphenyl]-4-yl)carbonyl]-N-methyl-N-(1-methyl-3-pyrrolidinyl)-10,11-dihydro-5H-pyrrolo[2,1-c][1,4]benzodiazepine-3-carboxamide], the inhibition at 0.1 µM was 9%.
In the case of `COc1cccc(-c2cc(OC)c(C(=O)N3Cc4ccc(C(=O)N(C)C5CCN(C)C5)n4Cc4ccccc43)cc2Cl)c1` (stereo not shown) [Example 191, 10-[(6-Chloro-3,3′-dimethoxy[1,1′-biphenyl]-4-yl)carbonyl]-N-methyl-N-(1-methyl-3-pyrrolidinyl)-10,11-dihydro-5H-pyrrolo[2,1-c][1,4]benzodiazepine-3-carboxamide], the inhibition at 0.1 µM is reported as 17%.
Molecule `COc1cc(C(=O)N2Cc3ccc(C(=O)N(C)C4CCN(C)C4)n3Cc3ccccc32)ccc1-c1cccc2ccccc12` (stereo not shown) [Example 192, 10-[3-Methoxy-4-(1-naphthyl)benzoyl]-N-methyl-N-(1-methyl-3-pyrrolidinyl)-10,11-dihydro-5H-pyrrolo[2,1-c][1,4]benzodiazepine-3-carboxamide] has an inhibition at 0.1 µM of 28%.
Work on `COc1ccccc1-c1ccc(C(=O)N2Cc3ccc(C(=O)N(C)C4CCN(C)C4)n3Cc3ccccc32)cc1OC` (stereo not shown) [Example 193, 10-[(2,2′-Dimethoxy[1,1′-biphenyl]-4-yl)carbonyl]-N-methyl-N-(1-methyl-3-pyrrolidinyl)-10,11-dihydro-5H-pyrrolo[2,1-c][1,4]benzodiazepine-3-carboxamide] yielded an inhibition at 0.1 µM of 16%.
With `Cc1cc(C(=O)N2Cc3ccc(C(=O)N(C)C4CCN(C)C4)n3Cc3ccccc32)ccc1-c1ccccc1C(F)(F)F` (stereo not shown) [Example 194, N-Methyl-N-(1-methyl-3-pyrrolidinyl)-10-{[2-methyl-2′-(trifluoromethyl)[1,1′-biphenyl]-4-yl]carbonyl}-10,11-dihydro-5H-pyrrolo[2,1-c][1,4]benzodiazepine-3-carboxamide] the inhibition at 0.1 µM was 0%.
`Cc1ccccc1-c1ccc(C(=O)N2Cc3ccc(C(=O)N4CCN(CCN(C)C)CC4)n3Cc3ccccc32)cc1C` [Example 198, {4-[2-(Dimethylamino)ethyl]-1-piperazinyl}{10-[(2,2′-dimethyl[1,1′-biphenyl]-4-yl)carbonyl]-10,11-dihydro-5H-pyrrolo[2,1-c][1,4]benzodiazepin-3-yl}methanone] was tested, and the inhibition at 0.1 µM was 19%.
`Cc1ccccc1-c1ccc(C(=O)N2Cc3ccc(C(=O)N4CCN(CCN(C)C)CC4)n3Cc3ccccc32)cc1` [Example 200, {4-[2-(Dimethylamino)ethyl]-1-piperazinyl}{10-[(2′-methyl[1,1′-biphenyl]-4-yl)carbonyl]-10,11-dihydro-5H-pyrrolo[2,1-c][1,4]benzodiazepin-3-yl}methanone] was tested, and the inhibition at 0.1 µM was 10%.
`COc1cc(C(=O)N2Cc3ccc(C(=O)N4CCN(CCN(C)C)CC4)n3Cc3ccccc32)ccc1-c1ccccc1C` [Example 201, {4-[2-(Dimethylamino)ethyl]-1-piperazinyl}{10-[(2-methoxy-2′-methyl[1,1′-biphenyl]-4-yl)carbonyl]-10,11-dihydro-5H-pyrrolo[2,1-c][1,4]benzodiazepin-3-yl}methanone] gave an inhibition at 0.1 µM of 19%.
In the case of `COc1cccc(-c2cc(OC)c(C(=O)N3Cc4ccc(C(=O)N5CCN(CCN(C)C)CC5)n4Cc4ccccc43)cc2Cl)c1` [Example 202, {10-[(6-Chloro-3,3′-dimethoxy[1,1′-biphenyl]-4-yl)carbonyl]-10,11-dihydro-5H-pyrrolo[2,1-c][1,4]benzodiazepin-3-yl}{4-[2-(dimethylamino)ethyl]-1-piperazinyl}methanone], the inhibition at 0.1 µM is reported as 8%.
`COc1cc(C(=O)N2Cc3ccc(C(=O)N4CCN(CCN(C)C)CC4)n3Cc3ccccc32)ccc1-c1cccc2ccccc12` [Example 203, {4-[2-(Dimethylamino)ethyl]-1-piperazinyl}{10-[3-methoxy-4-(1-naphthyl)benzoyl]-10,11-dihydro-5H-pyrrolo[2,1-c][1,4]benzodiazepin-3-yl}methanone] was tested, and the inhibition at 0.1 µM was 28%.
`COc1ccccc1-c1ccc(C(=O)N2Cc3ccc(C(=O)N4CCN(CCN(C)C)CC4)n3Cc3ccccc32)cc1OC` [Example 204, {10-[(2,2′-Dimethoxy[1,1′-biphenyl]-4-yl)carbonyl]-10,11-dihydro-5H-pyrrolo[2,1-c][1,4]benzodiazepin-3-yl}{4-[2-(dimethylamino)ethyl]-1-piperazinyl}methanone] gave an inhibition at 0.1 µM of 6%.
With `CN(C)CCN1CCN(C(=O)c2ccc3n2Cc2ccccc2N(C(=O)c2ccc(-c4cccc5ccccc45)cc2Cl)C3)CC1` [Example 205, {10-[2-Chloro-4-(1-naphthyl)benzoyl]-10,11-dihydro-5H-pyrrolo[2,1-c][1,4]benzodiazepin-3-yl}{4-[2-(dimethylamino)ethyl]-1-piperazinyl}methanone] the inhibition at 0.1 µM was 18%.
`COc1cccc(-c2ccc(C(=O)N3Cc4ccc(C(=O)N5CCN(CCN6CCOCC6)CC5)n4Cc4ccccc43)cc2C)c1` [Example 208, {10-[(3′-Methoxy-2-methyl[1,1′-biphenyl]-4-yl)carbonyl]-10,11-dihydro-5H-pyrrolo[2,1-c][1,4]benzodiazepin-3-yl}{4-[2-(4-morpholinyl)ethyl]-1-piperazinyl}methanone] gave an inhibition at 0.1 µM of 12%.
With `Cc1ccccc1-c1ccc(C(=O)N2Cc3ccc(C(=O)N4CCN(CCN5CCOCC5)CC4)n3Cc3ccccc32)cc1` [Example 209, {10-[(2′-Methyl[1,1′-biphenyl]-4-yl)carbonyl]-10,11-dihydro-5H-pyrrolo[2,1-c][1,4]benzodiazepin-3-yl}{4-[2-(4-morpholinyl)ethyl]-1-piperazinyl}methanone] the inhibition at 0.1 µM was 10%.
`COc1cc(C(=O)N2Cc3ccc(C(=O)N4CCN(CCN5CCOCC5)CC4)n3Cc3ccccc32)ccc1-c1ccccc1C` [Example 210, {10-[(2-Methoxy-2′-methyl[1,1′-biphenyl]-4-yl)carbonyl]-10,11-dihydro-5H-pyrrolo[2,1-c][1,4]benzodiazepin-3-yl}{4-[2-(4-morpholinyl)ethyl]-1-piperazinyl}methanone] gave an inhibition at 0.1 µM of 17%.
In the case of `COc1cccc(-c2ccc(C(=O)N3Cc4ccc(C(=O)N5CCN(CCN6CCOCC6)CC5)n4Cc4ccccc43)cc2OC)c1` [Example 211, {10-[(2,3′-Dimethoxy[1,1′-biphenyl]-4-yl)carbonyl]-10,11-dihydro-5H-pyrrolo[2,1-c][1,4]benzodiazepin-3-yl}{4-[2-(4-morpholinyl)ethyl]-1-piperazinyl}methanone], the inhibition at 0.1 µM is reported as 23%.
